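Cultured in 96-well plates, cells were exposed to test compound for 48 hours across five concentrations. The concentration for full growth arrest is given as TGI.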
The compounds below were run on CAKI-1 renal (assay: DTP human tumour cell line panel, 48 h).

| SMILES | TGI [µM] |
| --- | --- |
| COC(=O)C1SC(SC)=NC12c1ccccc1Nc1ccccc12 (stereo unspecified) | > 100 |
| CCOC(=O)C1(C/C=C/CBr)Cc2ccccc2C1=O (stereo unspecified) | 7.27 |
| CN1CCc2cc(N)cc3c2C1Cc1ccc(O)c(O)c1-3 (stereo unspecified) | > 100 |
| O=C1CCCSC(=O)N1Cc1ccccc1 | > 100 |
| COC(=O)c1c(C)cccc1C1CN=NC12Cc1ccc(C)cc1C2=O (stereo unspecified) | > 100 |
| N#Cc1c(-c2ccccc2)/c(=C\Nc2cccc(C(F)(F)F)c2)c(=O)n2c1nc1ccccc12 | 14.2 |
| S=C1Nc2ccccc2SC1c1ccccc1 (stereo unspecified) | > 100 |
| COC(=O)c1ccccc1CC1Cc2ccc3c(c2C1=O)CCCC3 (stereo unspecified) | > 100 |
| CN1CCN(C2=NCCO2)CC1 | > 100 |
| c1ccc(N=c2sc3ccccc3nc2Nc2ccccc2)cc1 | > 100 |
| O=C1/C(=C/c2ccccc2)N=C2Sc3c(nc[nH]c3=O)N12 | > 100 |
| C=CC1(C)CCC2C(=CCC3C2(C)CC(O)C(O)C3(C)COC2OC(C(=O)O)C(O)C(O)C2O)C1 (stereo unspecified) (tested in a mixture with another compound) | > 100 |
| N#Cc1c(N2CCCC2)ncn(-c2ccccc2)c1=O | > 100 |
| N#CC1(C#N)N[C@@H](c2ccsc2)[C@H]2C(=O)N(c3ccccc3)C(=O)[C@H]21 | > 100 |
| O=[N+]([O-])c1ccc2c(c1)/C(=N/N=C1c3ccccc3Cc3ccccc31)c1cc([N+](=O)[O-])cc([N+](=O)[O-])c1-2 | 9.36 |
| Cc1ccc([N+](=O)[O-])cc1NC1=NCCO1 | > 100 |
| CC(C)=CCc1c2c(c3occ(-c4ccc(O)cc4)c(=O)c3c1O)CC(C(C)(C)O)O2 (stereo unspecified) | 35.7 |
| CCOC(=O)C(SCCO)C(C(=O)OCC)n1cnc2c(=O)[nH]c(NC(C)=O)nc21 (stereo unspecified) | > 100 |
| COc1cc(C2c3cc4c(cc3OC(N3CCOCC3)C2C)OCO4)ccc1O (stereo unspecified) | 71.1 |
| Cc1ccccc1C(=O)N1CCc2c([nH]c3ccccc23)C1 | 79.5 |
| CC[C@@H]1CC[C@@H]2[C@H](CC[C@]3(C)[C@@H](OC(C)=O)CC[C@@H]23)[C@H]1COC(C)=O | > 100 |
| NS(=O)(=O)c1ccc2c(c1)OCCOCCOCCOCCO2 | > 100 |
| COC(=O)c1cc(=O)nc2sc3cccc(C)c3n12 | 61 |

These compounds were tested on NCI-H522 lung (assay: DTP human tumour cell line panel, 48 h).

| SMILES | TGI [µM] |
| --- | --- |
| O=C1CSC(c2ccc(Cl)cc2)N1c1ccc(Oc2ccc(Cl)cc2)c(Cl)c1 (stereo unspecified) | 23.3 |
| Cc1ccc(C(=O)O)cc1S(=O)(=O)Nn1cnc2ccc(S(=O)(=O)Nc3ccccc3C(=O)O)cc2c1=O | > 100 |
| CCCCCCc1cc2cc(-c3csc(CC#N)n3)c(=O)oc2cc1O | > 100 |
| C=C1C(=O)O[C@@H]2C(=O)[C@@H](C)CCC/C(C)=C/CC[C@@]3(C)O[C@@H]3C[C@@H]12 | 25.2 |
| COc1cc(Br)cc2cc(-c3cn4ccsc4n3)c(=O)oc12 | > 100 |
| C[C@]12CCC(O)CC1=CC[C@@H]1[C@@H]2CC[C@]2(C)C(=O)[C@H](n3ccnc3)C[C@@H]12 (stereo partly specified) | > 100 |
| O=c1[nH]c(Nc2cccc(CC(F)(F)F)c2)nc2nc[nH]c12 | > 100 |
| COc1ccc(-c2cc(O)c3nc4ccccc4n3c2)cc1 | > 100 |
| O=C1CC(NC(=O)C(F)(F)F)c2c(Br)sc(N3CCNCC3)c21 (stereo unspecified) | > 100 |
| COc1cc2nc3n(c(=O)c2cc1OC)-c1ccc([N+](=O)[O-])cc1C3=O | > 100 |
| CC(=O)OC1CC(OC2C(O)CC(OC3C(O)CC(OC4CCC5(C)C(CCC6C5CC(O)C5(C)C(C7=CC(=O)OC7)CCC65O)C4)OC3C)OC2C)OC(C)C1OC1OC(CO)C(O)C(O)C1O (stereo unspecified) | 0.114 |
| Nc1nc(SCCc2ccccc2)c2[nH]cnc2n1 | > 100 |
| Cc1ccc(-c2n[nH]c(=O)n2N2C(=O)c3ccccc3C2=O)cc1 | > 100 |
| COc1cc2c(c(OC)c1OC)C(=O)[C@@H]1[C@H]2N1C(N)=O | > 100 |
| COC(=O)C1SC(SC)=NC12c1ccccc1Nc1ccccc12 (stereo unspecified) | 49.3 |
| CCOC(=O)C1(C/C=C/CBr)Cc2ccccc2C1=O (stereo unspecified) | 3.11 |
| CN1CCc2cc(N)cc3c2C1Cc1ccc(O)c(O)c1-3 (stereo unspecified) | > 100 |
| O=C1CCCSC(=O)N1Cc1ccccc1 | > 100 |
| COC(=O)c1c(C)cccc1C1CN=NC12Cc1ccc(C)cc1C2=O (stereo unspecified) | 91.9 |
| N#Cc1c(-c2ccccc2)/c(=C\Nc2cccc(C(F)(F)F)c2)c(=O)n2c1nc1ccccc12 | 32.1 |
| S=C1Nc2ccccc2SC1c1ccccc1 (stereo unspecified) | > 100 |
| COC(=O)c1ccccc1CC1Cc2ccc3c(c2C1=O)CCCC3 (stereo unspecified) | > 100 |
| CN1CCN(C2=NCCO2)CC1 | > 100 |
| c1ccc(N=c2sc3ccccc3nc2Nc2ccccc2)cc1 | > 100 |
| O=C1/C(=C/c2ccccc2)N=C2Sc3c(nc[nH]c3=O)N12 | > 100 |
| C=CC1(C)CCC2C(=CCC3C2(C)CC(O)C(O)C3(C)COC2OC(C(=O)O)C(O)C(O)C2O)C1 (stereo unspecified) (tested in a mixture with another compound) | > 100 |
| N#Cc1c(N2CCCC2)ncn(-c2ccccc2)c1=O | > 100 |
| N#CC1(C#N)N[C@@H](c2ccsc2)[C@H]2C(=O)N(c3ccccc3)C(=O)[C@H]21 | > 100 |

Source: PubChem BioAssay (NCI)
